In ChEMBL document CHEMBL6109103, “Dodecapeptides derived from human cathelicidin with potent activity against carbapenem-resistant Acinetobacter baumannii” (Eur J Med Chem, 2025):
pKd: −log10 of the molar value. ≈ marks a conversion by molar mass, not a printed value. Calls of active or inactive are those of the source. The rule behind the calls is not given here. Residues, ends and D or L forms follow the SMILES beside them.

Experiments:
[1] = tested on: HUVEC; assay: Cytotoxicity against HUVEC cells assessed as cell death up to 50 microg/ml measured up to 24 hrs; format: toxicity, cell-based; settings: human, up to 50 µg/mL
[2] = tested on: Staphylococcus aureus; assay: Antibacterial activity against Methicillin-resistant Staphylococcus aureus ATCC 43300 assessed as inhibition of bacterial growth incubated for 24 hrs by broth dilution assay; format: functional
[3] = tested on: Staphylococcus aureus; assay: Antibacterial activity against Staphylococcus aureus […] assessed as inhibition of bacterial growth incubated for 24 hrs by broth dilution assay; format: functional
[4] = tested on: Acinetobacter baumannii; assay: Antibacterial activity against Acinetobacter baumannii ATCC 19606 assessed as inhibition of bacterial growth incubated for 24 hrs by broth dilution assay; format: functional
[5] = tested on: Acinetobacter baumannii; assay: Antibacterial activity against multidrug-resistant Acinetobacter baumannii assessed as inhibition of bacterial growth incubated for 24 hrs by broth dilution assay; format: functional
[6] = tested on: A549; assay: Cytotoxicity against human A549 cells assessed as cell death up to 50 microg/ml measured up to 24 hrs; format: toxicity, cell-based; settings: a549, 24 h, up to 50 µg/mL
[7] = tested on: Acinetobacter baumannii; assay: Antibacterial activity against carbapenem-resistant Acinetobacter baumannii clinical isolate 6 assessed as inhibition of bacterial growth incubated for 24 hrs by broth dilution assay; format: functional
[8] = tested on: Acinetobacter baumannii; assay: Antibacterial activity against carbapenem-resistant Acinetobacter baumannii clinical isolate 7 assessed as inhibition of bacterial growth incubated for 24 hrs by broth dilution assay; format: functional
[9] = tested on: Acinetobacter baumannii; assay: Antibacterial activity against carbapenem-resistant Acinetobacter baumannii clinical isolate 6 assessed as bacterial killing at 3.16 microg/ml measured within 10 mins relative to control; format: functional; settings: dose 3.16 µg/ml
[10] = tested on: Acinetobacter baumannii; assay: Antibacterial activity against carbapenem-resistant Acinetobacter baumannii clinical isolate 3 assessed as inhibition of bacterial growth incubated for 24 hrs by broth dilution assay; format: functional
[11] = Binding affinity to gram negative bacterial lipid II assessed as dissociation constant by BLI analysis; design: species or system Bacteria
[12] = tested on: Acinetobacter baumannii; assay: Antibacterial activity against carbapenem-resistant Acinetobacter baumannii clinical isolate 1 assessed as inhibition of bacterial growth incubated for 24 hrs by broth dilution assay; format: functional
[13] = tested on: Acinetobacter baumannii; assay: Antibacterial activity against carbapenem-resistant Acinetobacter baumannii clinical isolate 6 assessed as bacterial killing at 3.16 microg/ml measured for 1 hr in presence of NaCl; format: functional, organism-based; settings: dose 3.16 µg/ml
[14] = tested on: Acinetobacter baumannii; assay: Antibacterial activity against carbapenem-resistant Acinetobacter baumannii clinical isolate 5 assessed as inhibition of bacterial growth incubated for 24 hrs by broth dilution assay; format: functional
[15] = tested on: Acinetobacter baumannii; assay: Antibacterial activity against carbapenem-resistant Acinetobacter baumannii clinical isolate 8 assessed as inhibition of bacterial growth incubated for 24 hrs by broth dilution assay; format: functional
[16] = target: Lipoteichoic acid; assay: Binding affinity to […] bacterial Lipoteichoic acid assessed as dissociation constant by BLI analysis; design: species or system Bacteria
[17] = tested on: Acinetobacter baumannii; assay: Antibacterial activity against carbapenem-resistant Acinetobacter baumannii clinical isolate 4 assessed as inhibition of bacterial growth incubated for 24 hrs by broth dilution assay; format: functional
[18] = tested on: HaCaT; assay: Cytotoxicity against human HaCaT cells assessed as cell death up to 100 microg/ml measured upto 24 hrs; format: toxicity, cell-based; settings: dose < 100 µg/ml
[19] = tested on: Acinetobacter baumannii; assay: Antibacterial activity against carbapenem-resistant Acinetobacter baumannii clinical isolate 2 assessed as inhibition of bacterial growth incubated for 24 hrs by broth dilution assay; format: functional
[20] = Toxicity in BALB/c mouse assessed as lung damage at 16 mg/kg, ip measured for 3 days by H and E staining based analysis; format: organism-based; settings: in vivo, 72 h, time 3 day
[21] = Toxicity in BALB/c mouse assessed as liver damage at 16 mg/kg, ip measured for 3 days by H and E staining based analysis; format: organism-based; settings: in vivo, 72 h, time 3 day
[22] = Toxicity in BALB/c mouse assessed as heart damage at 16 mg/kg, ip measured for 3 days by H and E staining based analysis; format: organism-based; settings: in vivo, 72 h, time 3 day
[23] = Toxicity in BALB/c mouse assessed as spleen damage at 16 mg/kg, ip measured for 3 days by H and E staining based analysis; format: organism-based; settings: in vivo, 72 h, time 3 day

Question: Which Activity [1] does the source give for `CC[C@H](C)[C@H](NC(=O)[C@H](CCCCN)NC(=O)[C@H](CCC(=O)O)NC(=O)[C@H](CCCCN)NC(=O)[C@H](CO)NC(=O)[C@H](CCCCN)NC(=O)[C@H](CCCNC(=N)N)NC(=O)[C@H](Cc1ccccc1)NC(=O)[C@H](Cc1ccccc1)NC(=O)[C@H](CC(=O)O)NC(=O)CNC(=O)[C@H](CC(C)C)NC(=O)[C@@H](N)CC(C)C)C(=O)NCC(=O)N[C@@H](CCCCN)C(=O)N[C@@H](CCC(=O)O)C(=O)N[C@@H](Cc1ccccc1)C(=O)N[C@@H](CCCCN)C(=O)N[C@@H](CCCNC(=N)N)C(=O)N[C@H](C(=O)N[C@H](C(=O)N[C@@H](CCC(N)=O)C(=O)N[C@@H](CCCNC(=N)N)C(=O)N[C@H](C(=O)N[C@@H](CCCCN)C(=O)N[C@@H](CC(=O)O)C(=O)N[C@@H](Cc1ccccc1)C(=O)N[C@@H](CC(C)C)C(=O)N[C@@H](CCCNC(=N)N)C(=O)N[C@@H](CC(N)=O)C(=O)N[C@@H](CC(C)C)C(=O)N[C@H](C(=O)N1CCC[C@H]1C(=O)N[C@@H](CCCNC(=N)N)C(=O)N[C@H](C(=O)N[C@@H](CCC(=O)O)C(=O)N[C@@H](CO)C(=O)O)[C@@H](C)O)C(C)C)[C@@H](C)CC)C(C)C)[C@@H](C)CC` [CATHELICIDIN] here?
Answer: Its Activity is 29%.

Question: And the MIC [2]?
Answer: The MIC was 320 µg/mL (≈ 71.2 µM).

Question: What about the MIC [3] of the same compound?
Answer: Its MIC is greater than 320 µg/mL.

Question: What about the MIC [4] of the same compound?
Answer: The MIC was 40 µg/mL (≈ 8.9 µM).

Question: What about the MIC [5] of the same compound?
Answer: Its MIC is 10 µg/mL (≈ 2.23 µM).

Question: And the Activity [6]?
Answer: The Activity was 29%.

Question: For H-KRIVQRIKDFLR-OH, which MIC [7] is on record?
Answer: Its MIC is 160 µg/mL.

Question: What about the MIC [8] of the same compound?
Answer: The MIC was 160 µg/mL.

Question: And the Activity [9]?
Answer: The Activity was 19.5%.

Question: What about the MIC [10] of the same compound?
Answer: The MIC was 320 µg/mL.

Question: What about the pKd [11] of the same compound?
Answer: The pKd was 6.77.

Question: What about the MIC [12] of the same compound?
Answer: Its MIC is 320 µg/mL.

Question: What about the MIC [2] of the same compound?
Answer: The MIC was greater than 320 µg/mL.

Question: What about the MIC [3] of the same compound?
Answer: The MIC was greater than 320 µg/mL.

Question: What about the MIC [4] of the same compound?
Answer: Its MIC is greater than 320 µg/mL.

Question: And the MIC [5]?
Answer: The MIC was 160 µg/mL.

Question: And the Activity [13]?
Answer: Its Activity is “inactive”.

Question: And the MIC [14]?
Answer: The MIC was 160 µg/mL.

Question: What about the MIC [15] of the same compound?
Answer: Its MIC is 160 µg/mL.

Question: And the pKd [16]?
Answer: Its pKd is 6.62.

Question: And the MIC [17]?
Answer: The MIC was 160 µg/mL.

Question: What about the Activity [18] of the same compound?
Answer: Its Activity is “Non-toxic”.

Question: What about the MIC [19] of the same compound?
Answer: The MIC was 320 µg/mL.

Question: With `CC(C)CCCCC(=O)N[C@@H](CCN)C(=O)N[C@H](C(=O)N[C@@H](CCN)C(=O)N[C@H]1CCNC(=O)[C@H]([C@@H](C)O)NC(=O)[C@H](CCN)NC(=O)[C@H](CCN)NC(=O)[C@H](CC(C)C)NC(=O)[C@@H](Cc2ccccc2)NC(=O)[C@H](CCN)NC1=O)[C@@H](C)O.CC[C@H](C)CCCCC(=O)N[C@@H](CCN)C(=O)N[C@H](C(=O)N[C@@H](CCN)C(=O)N[C@H]1CCNC(=O)[C@H]([C@@H](C)O)NC(=O)[C@H](CCN)NC(=O)[C@H](CCN)NC(=O)[C@H](CC(C)C)NC(=O)[C@@H](Cc2ccccc2)NC(=O)[C@H](CCN)NC1=O)[C@@H](C)O` (HELM PEPTIDE1{[CC[C@H](C)CCCCC(=O)[*:2]].[Dab].T.[Dab].[Dab].[Dab].[dF].L.[Dab].[Dab].T}$PEPTIDE1,PEPTIDE1,5:R3-11:R2$$$V2.0) as the compound, how does the Activity [20] read?
Answer: The Activity was “Non-toxic”.

Question: What about the Activity [21] of the same compound?
Answer: Its Activity is “Non-toxic”.

Question: And the Activity [22]?
Answer: Its Activity is “Non-toxic”.

Question: What about the Activity [23] of the same compound?
Answer: Its Activity is “Non-toxic”.
